Among the data in ChEMBL document CHEMBL1128422 (J Med Chem, 1995) are EC50 values, retold here.

The species named for this assay is Oryctolagus cuniculus. Kind of assay: Ability to stimulate contraction of the rabbit iris sphincter smooth muscle using smooth muscle contraction assay. Type of assay: functional. The following applies: Muscle tissue.

Compound `CSCC[C@H](NC(=O)[C@H](CC(C)C)NC(=O)CNC(=O)[C@@H](NC(=O)[C@@H](NC(=O)[C@H](CCC(N)=O)NC(=O)[C@H](CCC(N)=O)NC(=O)[C@@H]1CCCN1C(=O)[C@H](CCCCN)NC(=O)[C@@H]1CCCN1C(=O)[C@@H](N)CCCN=C(N)N)[C@H](C)c1ccccc1)[C@@H](C)c1ccccc1)C(N)=O` came in with an EC50 of 0.28 nM.
Turning to `CSCC[C@H](NC(=O)[C@H](CC(C)C)NC(=O)CNC(=O)[C@@H](NC(=O)[C@@H](NC(=O)[C@H](CCC(N)=O)NC(=O)[C@H](CCC(N)=O)NC(=O)[C@@H]1CCCN1C(=O)[C@H](CCCCN)NC(=O)[C@@H]1CCCN1C(=O)[C@@H](N)CCCN=C(N)N)[C@@H](C)c1ccccc1)[C@H](C)c1ccccc1)C(N)=O`, the EC50 is 0.58 nM.
Consider `CSCC[C@H](NC(=O)[C@H](CC(C)C)NC(=O)CNC(=O)[C@H](Cc1ccccc1)NC(=O)[C@@H](NC(=O)[C@H](CCC(N)=O)NC(=O)[C@H](CCC(N)=O)NC(=O)[C@@H]1CCCN1C(=O)[C@H](CCCCN)NC(=O)[C@@H]1CCCN1C(=O)[C@@H](N)CCCN=C(N)N)[C@@H](C)c1ccccc1)C(N)=O`, for which the midpoint of the response, the EC50, lay at 0.59 nM.
Take `CSCC[C@H](NC(=O)[C@H](CC(C)C)NC(=O)CNC(=O)[C@@H](NC(=O)[C@H](Cc1ccccc1)NC(=O)[C@H](CCC(N)=O)NC(=O)[C@H](CCC(N)=O)NC(=O)[C@@H]1CCCN1C(=O)[C@H](CCCCN)NC(=O)[C@@H]1CCCN1C(=O)[C@@H](N)CCCN=C(N)N)[C@H](C)c1ccccc1)C(N)=O`: a half-maximal effect (EC50) was put at 5.76 nM.
`CSCC[C@H](NC(=O)[C@H](CC(C)C)NC(=O)CNC(=O)[C@H](Cc1ccccc1)NC(=O)[C@@H](NC(=O)[C@H](CCC(N)=O)NC(=O)[C@H](CCC(N)=O)NC(=O)[C@@H]1CCCN1C(=O)[C@H](CCCCN)NC(=O)[C@@H]1CCCN1C(=O)[C@@H](N)CCCN=C(N)N)[C@H](C)c1ccccc1)C(N)=O` displayed an EC50 of 0.54 nM.
The compound `CSCC[C@H](NC(=O)[C@H](CC(C)C)NC(=O)CNC(=O)[C@@H](NC(=O)[C@@H](NC(=O)[C@H](CCC(N)=O)NC(=O)[C@H](CCC(N)=O)NC(=O)[C@@H]1CCCN1C(=O)[C@H](CCCCN)NC(=O)[C@@H]1CCCN1C(=O)[C@@H](N)CCCN=C(N)N)[C@H](C)c1ccccc1)[C@H](C)c1ccccc1)C(N)=O` displayed an EC50 of 10 nM.
`CSCC[C@H](NC(=O)[C@H](CC(C)C)NC(=O)CNC(=O)[C@@H](NC(=O)[C@@H](NC(=O)[C@H](CCC(N)=O)NC(=O)[C@H](CCC(N)=O)NC(=O)[C@@H]1CCCN1C(=O)[C@H](CCCCN)NC(=O)[C@@H]1CCCN1C(=O)[C@@H](N)CCCN=C(N)N)[C@@H](C)c1ccccc1)[C@@H](C)c1ccccc1)C(N)=O` registered an EC50 of 0.18 nM.
For the compound `CSCC[C@H](NC(=O)[C@H](CC(C)C)NC(=O)CNC(=O)[C@@H](NC(=O)[C@H](Cc1ccccc1)NC(=O)[C@H](CCC(N)=O)NC(=O)[C@H](CCC(N)=O)NC(=O)[C@@H]1CCCN1C(=O)[C@H](CCCCN)NC(=O)[C@@H]1CCCN1C(=O)[C@@H](N)CCCN=C(N)N)[C@@H](C)c1ccccc1)C(N)=O`, the EC50 turned out to be 0.13 nM.
